Experimental data published in ChEMBL document CHEMBL1141371, “Cytotoxic 5-alkylresorcinol metabolites from the leaves of Grevillea robusta” (J Nat Prod, 2007).

What was measured:
[1] = system: MCF7; experiment: Cytotoxicity against human MCF7 cells; format: cell-based
[2] = system: NCI-H460; experiment: Cytotoxicity against human NCI-H460 cells; format: cell-based
[3] = system: SF-268; experiment: Cytotoxicity against human SF268 cells; format: functional, cell-based

Work on COc1cc(O)cc(CCCCCCC/C=C/CCCCCc2cc(O)cc(O)c2)c1 [DEHYDROBISGRAVILLOL] yielded an IC50 [1] of 29.8 µM, an IC50 [2] of 27 µM and an IC50 [3] of 30.2 µM.

Work on Oc1cc2cc(c1)Oc1c(O)cc(cc1O)[C@H](O)CCCCCC/C=C/CCCCC2 [DEHYDROGRAVICYCLE] yielded an IC50 [1] of 30 µM, an IC50 [2] of 27.9 µM and an IC50 [3] of 31.3 µM.

Oc1cc2cc(c1)Oc1c(O)cc(cc1O)CCCCCCC/C=C/CCCCC2 [DEHYDROROBUSTOL A] was tested, and the IC50 [1] was 31.8 µM, the IC50 [2] was 28 µM and the IC50 [3] was 33.1 µM.

Work on Oc1cc2cc(c1)Oc1c(O)cc(cc1O)[C@H](O)CCCCCCCCCCCCC2 yielded an IC50 [1] of 30.6 µM, an IC50 [2] of 27 µM and an IC50 [3] of 32.1 µM.

Oc1cc(O)cc(CCCCCCCCCCCCCCc2cc(O)cc(O)c2)c1 [BISNORSTRIATOL] gave an IC50 [1] of 29.2 µM, an IC50 [2] of 28.8 µM and an IC50 [3] of 29.8 µM.

Oc1cc2cc(c1)Oc1c(O)cc(cc1O)CCCCCCCCCCCCCC2 [ROBUSTOL] was tested, and the IC50 [1] was 32.4 µM, the IC50 [2] was 24 µM and the IC50 [3] was 32.7 µM.

COc1cc(O)cc2c1-c1c(O)cc(cc1O)CCCCCCCCCCCCCC2 gave an IC50 [1] of 30.8 µM, an IC50 [2] of 28.9 µM and an IC50 [3] of 31.1 µM.

Oc1cc(O)cc(CCCCC/C=C/CCCCCCCc2cc(O)cc(O)c2)c1 gave an IC50 [1] of 28.6 µM, an IC50 [2] of 27.7 µM and an IC50 [3] of 30.6 µM.

In the case of Oc1cc(O)c2c(c1)CCCCCCCCCCCCCCc1cc(O)c-2c(O)c1, the IC50 [1] is reported as 28.6 µM, the IC50 [2] is reported as 22.8 µM and the IC50 [3] is reported as 27.7 µM.

Oc1cc(O)c2c(c1)CCCCC/C=C/CCCCCCCc1cc(O)c-2c(O)c1 [DEHYDROGRAVIPHANE] was tested, and the IC50 [1] was 30.7 µM, the IC50 [2] was 25.4 µM and the IC50 [3] was 33.4 µM.

COc1cc(O)cc2c1-c1c(O)cc(cc1O)CCCCCCC/C=C/CCCCC2 gave an IC50 [1] of 29.3 µM, an IC50 [2] of 27.9 µM and an IC50 [3] of 29.1 µM.

CCCCCCCCCCCCCCCc1cc(O)cc(O)c1 [CARDOL] gave an IC50 [1] of 37 µM, an IC50 [2] of 34.2 µM and an IC50 [3] of 39.8 µM.

For COc1cc(O)cc(CCCCCCCCCCCCCCc2cc(O)cc(O)c2)c1 [BISGRAVILLOL], the IC50 [1] was 29.4 µM, the IC50 [2] was 28.7 µM and the IC50 [3] was 29.4 µM.
